Test results taken from the NIST ThermoML archive (doi:10.1021/je900503p).

Assays:
[1] = relative permittivity at zero frequency (dimensionless); xn = mol fraction of the nth substance listed; conditions: 101 kPa, Liquid, Dekameter
[2] = xn = mol fraction of the nth substance listed; conditions: 101 kPa, Liquid
[3] = refractive index (Na D-line) (dimensionless); xn = mol fraction of the nth substance listed; conditions: 101 kPa, Liquid

O=C1CCCO1 [γ-butyrolactone] + CCCCO
Conditions | mass density [kg/m3] | refractive index | relative permittivity at zero frequency
[1], 293.15 K, x1 = 0.1098 | – | – | 20.68
[1], 293.15 K, x1 = 0.2154 | – | – | 22.37
[1], 293.15 K, x1 = 0.3009 | – | – | 23.98
[1], 293.15 K, x1 = 0.4127 | – | – | 26.17
[1], 293.15 K, x1 = 0.5088 | – | – | 28.44
[1], 293.15 K, x1 = 0.6124 | – | – | 31.29
[1], 293.15 K, x1 = 0.7001 | – | – | 33.79
[1], 293.15 K, x1 = 0.8133 | – | – | 37.12
[1], 293.15 K, x1 = 0.9078 | – | – | 40.02
[1], 298.15 K, x1 = 0.1098 | – | – | 19.61
[1], 298.15 K, x1 = 0.2154 | – | – | 21.23
[1], 298.15 K, x1 = 0.3009 | – | – | 22.55
[1], 298.15 K, x1 = 0.4127 | – | – | 24.92
[1], 298.15 K, x1 = 0.5088 | – | – | 27.23
[1], 298.15 K, x1 = 0.6124 | – | – | 29.79
[1], 298.15 K, x1 = 0.7001 | – | – | 32.21
[1], 298.15 K, x1 = 0.8133 | – | – | 36.01
[1], 298.15 K, x1 = 0.9078 | – | – | 39.13
[1], 303.15 K, x1 = 0.1098 | – | – | 18.57
[1], 303.15 K, x1 = 0.2154 | – | – | 19.99
[1], 303.15 K, x1 = 0.3009 | – | – | 21.61
[1], 303.15 K, x1 = 0.4127 | – | – | 23.88
[1], 303.15 K, x1 = 0.5088 | – | – | 26.16
[1], 303.15 K, x1 = 0.6124 | – | – | 28.82
[1], 303.15 K, x1 = 0.7001 | – | – | 31.34
[1], 303.15 K, x1 = 0.8133 | – | – | 35.03
[1], 303.15 K, x1 = 0.9078 | – | – | 38.46
[1], 313.15 K, x1 = 0.1098 | – | – | 16.65
[1], 313.15 K, x1 = 0.2154 | – | – | 18.16
[1], 313.15 K, x1 = 0.3009 | – | – | 19.99
[1], 313.15 K, x1 = 0.4127 | – | – | 22.01
[1], 313.15 K, x1 = 0.5088 | – | – | 24.43
[1], 313.15 K, x1 = 0.6124 | – | – | 26.76
[1], 313.15 K, x1 = 0.7001 | – | – | 29.25
[1], 313.15 K, x1 = 0.8133 | – | – | 33.05
[1], 313.15 K, x1 = 0.9078 | – | – | 36.56
[2], 293.15 K, x1 = 0.0786 | 831.12 | – | –
[2], 293.15 K, x1 = 0.1555 | 852.82 | – | –
[2], 293.15 K, x1 = 0.2466 | 879.28 | – | –
[2], 293.15 K, x1 = 0.2901 | 892.18 | – | –
[2], 293.15 K, x1 = 0.3664 | 915.23 | – | –
[2], 293.15 K, x1 = 0.4332 | 935.89 | – | –
[2], 293.15 K, x1 = 0.4988 | 956.54 | – | –
[2], 293.15 K, x1 = 0.5616 | 976.71 | – | –
[2], 293.15 K, x1 = 0.6336 | 1000.34 | – | –
[2], 293.15 K, x1 = 0.7033 | 1023.73 | – | –
[2], 293.15 K, x1 = 0.7956 | 1055.39 | – | –
[2], 293.15 K, x1 = 0.8654 | 1080.09 | – | –
[2], 293.15 K, x1 = 0.9334 | 1104.36 | – | –
[2], 293.15 K, x1 = 0.9888 | 1124.69 | – | –
[2], 298.15 K, x1 = 0.0786 | 827.22 | – | –
[2], 298.15 K, x1 = 0.1555 | 848.94 | – | –
[2], 298.15 K, x1 = 0.2466 | 875.32 | – | –
[2], 298.15 K, x1 = 0.2901 | 888.19 | – | –
[2], 298.15 K, x1 = 0.3664 | 911.2 | – | –
[2], 298.15 K, x1 = 0.4332 | 931.77 | – | –
[2], 298.15 K, x1 = 0.4988 | 952.35 | – | –
[2], 298.15 K, x1 = 0.5616 | 972.46 | – | –
[2], 298.15 K, x1 = 0.6336 | 996.03 | – | –
[2], 298.15 K, x1 = 0.7033 | 1019.35 | – | –
[2], 298.15 K, x1 = 0.7956 | 1050.92 | – | –
[2], 298.15 K, x1 = 0.8654 | 1075.34 | – | –
[2], 298.15 K, x1 = 0.9334 | 1099.62 | – | –
[2], 298.15 K, x1 = 0.9888 | 1119.77 | – | –
[2], 303.15 K, x1 = 0.0786 | 823.57 | – | –
[2], 303.15 K, x1 = 0.1555 | 845.28 | – | –
[2], 303.15 K, x1 = 0.2466 | 871.63 | – | –
[2], 303.15 K, x1 = 0.2901 | 884.43 | – | –
[2], 303.15 K, x1 = 0.3664 | 907.36 | – | –
[2], 303.15 K, x1 = 0.4332 | 927.87 | – | –
[2], 303.15 K, x1 = 0.4988 | 948.38 | – | –
[2], 303.15 K, x1 = 0.5616 | 968.43 | – | –
[2], 303.15 K, x1 = 0.6336 | 991.92 | – | –
[2], 303.15 K, x1 = 0.7033 | 1015.09 | – | –
[2], 303.15 K, x1 = 0.7956 | 1046.55 | – | –
[2], 303.15 K, x1 = 0.8654 | 1070.81 | – | –
[2], 303.15 K, x1 = 0.9334 | 1094.88 | – | –
[2], 303.15 K, x1 = 0.9888 | 1114.92 | – | –
[2], 313.15 K, x1 = 0.0786 | 816.82 | – | –
[2], 313.15 K, x1 = 0.1555 | 839.3 | – | –
[2], 313.15 K, x1 = 0.2466 | 866.62 | – | –
[2], 313.15 K, x1 = 0.2901 | 879.94 | – | –
[2], 313.15 K, x1 = 0.3664 | 903.64 | – | –
[2], 313.15 K, x1 = 0.4332 | 924.87 | – | –
[2], 313.15 K, x1 = 0.4988 | 946.17 | – | –
[2], 313.15 K, x1 = 0.5616 | 966.89 | – | –
[2], 313.15 K, x1 = 0.6336 | 991.1 | – | –
[2], 313.15 K, x1 = 0.7033 | 1015.08 | – | –
[2], 313.15 K, x1 = 0.7956 | 1047.44 | – | –
[2], 313.15 K, x1 = 0.8654 | 1072.54 | – | –
[2], 313.15 K, x1 = 0.9334 | 1097.32 | – | –
[2], 313.15 K, x1 = 0.9888 | 1118.1 | – | –
[3], 293.15 K, x1 = 0.1098 | – | 1.4026 | –
[3], 293.15 K, x1 = 0.2154 | – | 1.4063 | –
[3], 293.15 K, x1 = 0.3009 | – | 1.4096 | –
[3], 293.15 K, x1 = 0.4127 | – | 1.4136 | –
[3], 293.15 K, x1 = 0.5088 | – | 1.4172 | –
[3], 293.15 K, x1 = 0.6124 | – | 1.4213 | –
[3], 293.15 K, x1 = 0.7001 | – | 1.4247 | –
[3], 293.15 K, x1 = 0.8133 | – | 1.4294 | –
[3], 293.15 K, x1 = 0.9078 | – | 1.4332 | –
[3], 298.15 K, x1 = 0.1098 | – | 1.4014 | –
[3], 298.15 K, x1 = 0.2154 | – | 1.4051 | –
[3], 298.15 K, x1 = 0.3009 | – | 1.4083 | –
[3], 298.15 K, x1 = 0.4127 | – | 1.4124 | –
[3], 298.15 K, x1 = 0.5088 | – | 1.416 | –
[3], 298.15 K, x1 = 0.6124 | – | 1.42 | –
[3], 298.15 K, x1 = 0.7001 | – | 1.4234 | –
[3], 298.15 K, x1 = 0.8133 | – | 1.4279 | –
[3], 298.15 K, x1 = 0.9078 | – | 1.4316 | –
[3], 303.15 K, x1 = 0.1098 | – | 1.4 | –
[3], 303.15 K, x1 = 0.2154 | – | 1.4038 | –
[3], 303.15 K, x1 = 0.3009 | – | 1.407 | –
[3], 303.15 K, x1 = 0.4127 | – | 1.4111 | –
[3], 303.15 K, x1 = 0.5088 | – | 1.4147 | –
[3], 303.15 K, x1 = 0.6124 | – | 1.4186 | –
[3], 303.15 K, x1 = 0.7001 | – | 1.4219 | –
[3], 303.15 K, x1 = 0.8133 | – | 1.4263 | –
[3], 303.15 K, x1 = 0.9078 | – | 1.43 | –
[3], 313.15 K, x1 = 0.1098 | – | 1.3973 | –
[3], 313.15 K, x1 = 0.2154 | – | 1.4013 | –
[3], 313.15 K, x1 = 0.3009 | – | 1.4044 | –
[3], 313.15 K, x1 = 0.4127 | – | 1.4085 | –
[3], 313.15 K, x1 = 0.5088 | – | 1.4121 | –
[3], 313.15 K, x1 = 0.6124 | – | 1.4158 | –
[3], 313.15 K, x1 = 0.7001 | – | 1.4192 | –
[3], 313.15 K, x1 = 0.8133 | – | 1.4232 | –
[3], 313.15 K, x1 = 0.9078 | – | 1.4267 | –
